Measured values published in publication PMC6272685, “Docking and Antiherpetic Activity of 2-Aminobenzo[de]-isoquinoline-1,3-diones” (Molecules, 2015).
In brackets after ≈: the same amount, converted by molar mass. Like-named read-outs stand apart in the source and are kept apart here.

Key:
HSV-1 = assay: cytopathic effect inhibition assay against HSV-1 in Vero cells; assay type: cell-based, herpes simplex virus 1 (GHSV-UL46); conditions: Human alphaherpesvirus 1, Vero, 48 h, read-out: HSV-1 EC50
Procedure: (§1) Vero cells (derived from the kidney of a normal African green monkey) were obtained from the American Type Culture Collection (ATCC, Manassas, VA, USA). The viral strains used were GHSV-UL46 for HSV-1 and the G strain for HSV-2. The Vero cells were propagated in Dulbecco’s modified Eagle’s medium (DMEM) supplemented with 10% heat-inactivated foetal bovine serum (FBS), 1% L-glutamine, HEPES buffer and 50 µg/mL gentamycin. All cells were maintained at 37 °C in a humidified atmosphere with 5% CO2 and were subcultured two times a week.
(§2) The antiviral screening was performed using a cytopathic effect inhibition assay at the Regional Center for Mycology and Biotechnology (RCMB, Al-Azhar University, Cairo, Egypt). This assay was selected to show specific inhibition of a biological function, that is, a cytopathic effect in susceptible mammalian cells. In brief, monolayers of 10,000 Vero cells adhering at the bottom of the wells in a 96-well microtiter plate were incubated for 24 h at 37 °C in a humidified incubator with 5% CO2. The plates were washed with fresh DMEM and challenged with 10^4 doses of herpes simplex 1 or 2 virus, and then the cultures were simultaneously treated with two-fold serial dilutions of the tested compound, starting from 500 µg/mL and going up to about 2 µg/mL (500, 250, 125, 62.5, …, 1.95 µg/mL) in a fresh maintenance medium; following this, they were incubated at 37 °C for 48 h. An infection control, as well as an untreated Vero cell control were made in the absence of tested compounds. […] Antiviral activity was determined by the inhibition of the cytopathic effect compared to a control, that is, the protection offered by the tested compound to the cells was scored. Three independent experiments were assessed, each containing four replicates per treatment.
(§3) After the incubation period, the media was aspirated, and then the cells were stained with a 1% crystal violet solution for 30 min. Thereafter, all excess stain was removed by rinsing the plates with tap water. The plates were allowed to dry, and then glacial acetic acid (30%) was added to all wells and mixed thoroughly. The absorbance of the plates was measured after gentle shaking on a microplate reader (Tecan Inc., Morrisville, NC, USA), at 590 nm. The viral inhibition rate was calculated as follows: [(ODtv − ODcv)/(ODcd − ODcv)] × 100% where ODtv, ODcv and ODcd indicate the absorbance of the tested compounds with virus-infected cells, the absorbance of the virus control and the absorbance of the cell control, respectively.
EC50 values were determined directly from the curve obtained by plotting the inhibition of the virus yield against the concentration of the samples. […] This index is referred to as a therapeutic index, and it was also used to determine whether a compound warranted further study.

[1] = cytotoxicity evaluation using viability assay (crystal violet); assay type: cell-based, African green monkey; conditions: African green monkey, Vero cells
Procedure: as §1
The Vero cell lines in the cytotoxicity assay were seeded in 96-well plates at a cell concentration of 1 × 10^4 cells per well in 100 µL of the growth medium. Fresh medium containing different concentrations of the tested sample was added after 24 h of seeding. Serial two-fold dilutions of the tested compound were added to confluent cell monolayers dispensed into 96-well, flat-bottomed microtiter plates (Falcon, Jersey, NJ, USA) using a multichannel pipette. The microtiter plates were incubated at 37 °C in a humidified incubator with 5% CO2 for a period of 48 h. Three wells were used for each concentration of the tested sample. Control cells were incubated without test samples and with or without DMSO. The small percentage of DMSO present in the wells (maximal 0.1%) was not found to affect the experiment.
After the end of the incubation period, the viable cell yield was determined by a colorimetric method. In brief, the process of treatment the media with crystal violet solution and measurement of absorbance at 590 nm using a microplate reader was mentioned above. The absorbance was proportional to the number of surviving cells in the culture plate. All the results were corrected for background absorbance detected in wells without added stain. Treated samples were compared with the cell control in the absence of the tested compounds. All experiments were carried out in triplicate. The cell cytotoxicity effect of each tested compound was calculated.
Statistics were done using a one-way ANOVA test, and the percentage cell viability was calculated using Microsoft Excel®, as follows: % Cell viability = [(Mean Abscontrol− Mean Abstest metabolite)/Mean Abscontrol] × 100 where Abs equals the absorbance at 590 nm. The CC50 was estimated from graphic plots and the STATA statistical analysis package was used for the drawing of the dose response curve, in order to calculate CC50. Concerning antiviral evaluation, all experiments and data analysis were performed in RCMB, Al-Azhar University, Cairo, Egypt.

HSV-2 = assay: cytopathic effect inhibition assay against HSV-2 in Vero cells; assay type: cell-based, herpes simplex virus 2 (G strain); conditions: 48 h, read-out: HSV-2 EC50
Procedure: as §1, §2, §3
EC50 values were determined directly from the curve obtained by plotting the inhibition of the virus yield against the concentration of the samples. The selectivity index (SI) was calculated from the ratio of CC50 to EC50 in order to determine whether each compound had sufficient antiviral activity that exceeded its level of toxicity. This index is referred to as a therapeutic index, and it was also used to determine whether a compound warranted further study.

Nc1nc2c(ncn2COCCO)c(=O)[nH]1 [Acyclovir, reference compound]
EC50 (HSV-1): 1.8 ± 0.2 µg/mL (≈ 7.99 µM) | CC50 at 48 h [1]: 600 ± 18 µg/mL (≈ 2660 µM) | EC50 (HSV-2; Human alphaherpesvirus 2, Vero cells, cytopathic effect inhibition): 3.4 ± 0.6 µg/mL (≈ 15.1 µM)

NN1C(=O)c2cccc3cccc(c23)C1=O [Parent, 2-amino-1H-benzo[de]isoquinoline-1,3-dione]
EC50 (HSV-1): > 500 µg/mL | CC50 at 48 h [1]: 320 ± 24 µg/mL (≈ 1510 µM) | EC50 (HSV-2; Human alphaherpesvirus 2, Vero): > 500 µg/mL
